# Test results reported in ChEMBL document CHEMBL4834486 (Bioorg Med Chem, 2021).
# Calls of active or inactive are those of the source. No cut-off for these calls is given here.
# Experiments:
# [1] = test system: MDA-MB-231; assay: Antiproliferative activity against human MDA-MB-231 cells assessed as inhibition of cell proliferation measured after 72 hrs by CCK-8 assay; format: functional, cell-based; conditions: MDA-MB-231, 72 h
# [2] = test system: MCF-10A; assay: Cytotoxicity against human MCF-10A cells assessed as inhibition of cell proliferation measured after 72 hrs by CCK-8 assay; format: cell-based
# [3] = test system: MCF7; assay: Antiproliferative activity against human MCF7 cells assessed as inhibition of cell proliferation measured after 72 hrs by CCK-8 assay; format: functional, cell-based; conditions: MCF7, 72 h
# [4] = test system: MDA-MB-231; assay: Induction of apoptosis in human MDA-MB-231 cells assessed as late apoptotic cells at 5 uM measured after 72 hrs by Annexin V-FITC/PI staining based flow cytometry method (reference value: 1.34%); format: functional
# [5] = test system: MDA-MB-231; assay: Induction of apoptosis in human MDA-MB-231 cells assessed as early apoptotic cells at 1.25 uM measured after 72 hrs by Annexin V-FITC/PI staining based flow cytometry method (reference value: 4.42%); format: functional
# [6] = test system: MDA-MB-231; assay: Cell cycle arrest in human MDA-MB-231 cells assessed as accumulation of cells at G2/M phase at 1.25 uM measured after 72 hrs by PI staining based flow cytometry method (reference value: 12.24%); format: functional
# [7] = test system: MDA-MB-231; assay: Cell cycle arrest in human MDA-MB-231 cells assessed as accumulation of cells at G1 phase at 5 uM measured after 72 hrs by PI staining based flow cytometry method (reference value: 51.58%); format: functional
# [8] = test system: MDA-MB-231; assay: Induction of apoptosis in human MDA-MB-231 cells assessed as necrotic cells at 1.25 uM measured after 72 hrs by Annexin V-FITC/PI staining based flow cytometry method (reference value: 0.97%); format: functional
# [9] = test system: MDA-MB-231; assay: Induction of apoptosis in human MDA-MB-231 cells assessed as necrotic cells at 2.5 uM measured after 72 hrs by Annexin V-FITC/PI staining based flow cytometry method (reference value: 0.97%); format: functional
# [10] = test system: MDA-MB-231; assay: Induction of apoptosis in human MDA-MB-231 cells assessed as late apoptotic cells at 1.25 uM measured after 72 hrs by Annexin V-FITC/PI staining based flow cytometry method (reference value: 1.34%); format: functional
# [11] = test system: MDA-MB-231; assay: Cell cycle arrest in human MDA-MB-231 cells assessed as accumulation of cells at G2/M phase at 5 uM measured after 72 hrs by PI staining based flow cytometry method (reference value: 12.24%); format: functional
# [12] = test system: MDA-MB-231; assay: Cell cycle arrest in human MDA-MB-231 cells assessed as accumulation of cells at S phase at 2.5 uM measured after 72 hrs by PI staining based flow cytometry method (reference value: 36.19%); format: functional
# [13] = test system: MDA-MB-231; assay: Induction of apoptosis in human MDA-MB-231 cells assessed as necrotic cells at 5 uM measured after 72 hrs by Annexin V-FITC/PI staining based flow cytometry method (reference value: 0.97%); format: functional
# [14] = test system: MDA-MB-231; assay: Induction of apoptosis in human MDA-MB-231 cells assessed as early apoptotic cells at 5 uM measured after 72 hrs by Annexin V-FITC/PI staining based flow cytometry method (reference value: 4.42%); format: functional
# [15] = test system: MDA-MB-231; assay: Induction of apoptosis in human MDA-MB-231 cells assessed as late apoptotic cells at 2.5 uM measured after 72 hrs by Annexin V-FITC/PI staining based flow cytometry method (reference value: 1.34%); format: functional
# [16] = test system: MDA-MB-231; assay: Cell cycle arrest in human MDA-MB-231 cells assessed as accumulation of cells at G2/M phase at 2.5 uM measured after 72 hrs by PI staining based flow cytometry method (reference value: 12.24%); format: functional
# [17] = test system: MDA-MB-231; assay: Induction of apoptosis in human MDA-MB-231 cells assessed as early apoptotic cells at 2.5 uM measured after 72 hrs by Annexin V-FITC/PI staining based flow cytometry method (reference value: 4.42%); format: functional
# [18] = test system: MDA-MB-231; assay: Inhibition of cell invasion in human MDA-MB-231 cells at 1.25 to 5 uM measured after 24 hrs by transwell assay; format: functional, cell-based; conditions: dose 1.25-5 µM
# [19] = test system: MDA-MB-231; assay: Induction of ROS generation in human MDA-MB-231 cells at 2.5 uM measured after 72 hrs by DCFH-DA staining based flow cytometry (reference value: 4.37%); format: functional
# [20] = test system: MDA-MB-231; assay: Cell cycle arrest in human MDA-MB-231 cells assessed as accumulation of cells at S phase at 1.25 uM measured after 72 hrs by PI staining based flow cytometry method (reference value: 36.19%); format: functional
# [21] = test system: MDA-MB-231; assay: Induction of apoptosis in human MDA-MB-231 cells assessed as viable cells at 2.5 uM measured after 72 hrs by Annexin V-FITC/PI staining based flow cytometry method (reference value: 93.27%); format: functional; conditions: read-out: Activity
# [22] = test system: MDA-MB-231; assay: Induction of ROS generation in human MDA-MB-231 cells at 1.25 uM measured after 72 hrs by DCFH-DA staining based flow cytomtery (reference value: 4.37%); format: functional
# [23] = test system: MDA-MB-231; assay: Induction of apoptosis in human MDA-MB-231 cells assessed as viable cells at 1.25 uM measured after 72 hrs by Annexin V-FITC/PI staining based flow cytometry method (reference value: 93.27%); format: functional; conditions: read-out: Activity
# [24] = test system: MDA-MB-231; assay: Cell cycle arrest in human MDA-MB-231 cells assessed as accumulation of cells at G1 phase at 2.5 uM measured after 72 hrs by PI staining based flow cytometry method (reference value: 51.58%); format: functional
# [25] = test system: MDA-MB-231; assay: Induction of DNA damage in human MDA-MB-231 cells assessed as increase in tail DNA measured after 72 hrs by comet assay; format: functional, cell-based; conditions: dose 1.25-5 µM
# [26] = test system: MDA-MB-231; assay: Inhibition of cell adhesion in human MDA-MB-231 cells measured after 72 hrs by fluorescence microscopy; format: functional, cell-based; conditions: dose 1.25-5 µM
# [27] = test system: MDA-MB-231; assay: Inhibition of cell migration in human MDA-MB-231 cells measured after 24 hrs by scratch wound healing assay; format: functional, cell-based; conditions: dose 1.25-5 µM
# [28] = test system: MDA-MB-231; assay: Cell cycle arrest in human MDA-MB-231 cells assessed as accumulation of cells at S phase at 5 uM measured after 72 hrs by PI staining based flow cytometry method (reference value: 36.19%); format: functional
# [29] = test system: MDA-MB-231; assay: Induction of ROS generation in human MDA-MB-231 cells at 5 uM measured after 72 hrs by DCFH-DA staining based flow cytometry (reference value: 4.37%); format: functional
# [30] = test system: MDA-MB-231; assay: Cell cycle arrest in human MDA-MB-231 cells assessed as accumulation of cells at G1 phase at 1.25 uM measured after 72 hrs by PI staining based flow cytometry method (reference value: 51.58%); format: functional
# [31] = test system: MDA-MB-231; assay: Induction of DNA damage in human MDA-MB-231 cells assessed as increase in generation of endogenous double strand DNA break adducts measured after 72 hrs by comet assay; format: functional, cell-based; conditions: dose 1.25-5 µM
# [32] = test system: MDA-MB-231; assay: Induction of apoptosis in human MDA-MB-231 cells assessed as viable cells at 5 uM measured after 72 hrs by Annexin V-FITC/PI staining based flow cytometry method (reference value: 93.27%); format: functional; conditions: read-out: Activity
structure (smiles),measurement,setting,value
Cc1nc(CO)cc2c1[nH]c1ccccc12,IC50,[1],> 20 µM
same,IC50,[2],> 40 µM
same,IC50,[3],11.3 µM
O=C(OCc1cc2c(cn1)[nH]c1ccccc12)c1ccc(N(CCCl)CCCl)cc1,IC50,[1],9.65 µM
same,IC50,[2],> 40 µM
same,IC50,[3],2.31 µM
O=CN[C@@H](Cc1ccc(N(CCCl)CCCl)cc1)C(=O)OCc1cc2c(cn1)[nH]c1ccccc12,IC50,[1],6.53 µM
same,IC50,[2],25.7 µM
same,IC50,[3],2.7 µM
CC(C)(C)OC(=O)N[C@@H](Cc1ccc(N(CCCl)CCCl)cc1)C(=O)OCc1cc2c(cn1)[nH]c1ccccc12,IC50,[1],16.9 µM
same,IC50,[2],> 40 µM
same,IC50,[3],3.43 µM
COc1cccc2c1C(=O)c1c(O)c3c(c(O)c1C2=O)C[C@@](O)(C(=O)CO)C[C@@H]3O[C@H]1C[C@H](N)[C@H](O)[C@H](C)O1 [DOXORUBICIN],IC50,[1],2.76 µM
COC(=O)[C@H](Cc1ccc(N(CCCl)CCCl)cc1)NC(=O)CCCC(=O)OCc1cc2c([nH]c3ccccc32)c(-c2ccc(OC)cc2)n1,IC50,[1],> 20 µM
same,IC50,[2],> 40 µM
same,IC50,[3],> 20 µM
COC(=O)[C@H](Cc1ccc(N(CCCl)CCCl)cc1)NC(=O)CCC(=O)OCc1cc2c([nH]c3ccccc32)c(-c2ccc(OC)cc2)n1,IC50,[1],> 20 µM
same,IC50,[2],> 40 µM
same,IC50,[3],16.9 µM
COC(=O)[C@H](Cc1ccc(N(CCCl)CCCl)cc1)NC(=O)CCCC(=O)OCc1cc2c(cn1)[nH]c1ccccc12,IC50,[1],> 20 µM
same,IC50,[2],> 40 µM
same,IC50,[3],> 20 µM
COc1ccc(-c2nc(COC(=O)[C@H](Cc3ccc(N(CCCl)CCCl)cc3)NC=O)cc3c2[nH]c2ccccc23)cc1,IC50,[1],5.72 µM
same,IC50,[2],31.9 µM
same,IC50,[3],4.23 µM
Cc1nc(COC(=O)[C@H](Cc2ccc(N(CCCl)CCCl)cc2)NC=O)cc2c1[nH]c1ccccc12,Activity,[4],22.85%
same,Activity,[5],8.77%
same,Activity,[6],13.62%
same,IC50,[1],4.96 µM
same,Activity,[7],42.06%
same,Activity,[8],3.49%
same,Activity,[9],3.39%
same,Activity,[10],9.71%
same,Activity,[11],20.2%
same,Activity,[12],38.72%
same,Activity,[13],5.32%
same,Activity,[14],23.28%
same,Activity,[15],10.22%
same,Activity,[16],16.45%
same,Activity,[17],12.24%
same,inhibition,[18],Active
same,Activity,[19],20.33%
same,Activity,[20],38.53%
same,viability at 2.5 µM,[21],74.2%
same,Activity,[22],17.2%
same,viability at 1.25 µM,[23],78%
same,IC50,[2],22.5 µM
same,IC50,[3],1.79 µM
same,Activity,[24],44.83%
same,Activity,[25],Dose-Dependent Effect
same,inhibition,[26],Dose-Dependent Effect
same,inhibition,[27],Dose-Dependent Effect
same,Activity,[28],37.74%
same,Activity,[29],47.15%
same,Activity,[30],47.85%
same,Activity,[31],Dose-Dependent Effect
same,viability at 5 µM,[32],48.5%
